Results: patent US20130209515A1, “ANTI-INFECTIVE AND IMMUNOMODULATORY COMPOUNDS” (priority 2005, published 2013)

System: P. aeruginosa cells
Type: cell-based, Pseudomonas aeruginosa
Settings: 3 mM 2AA
[1] = probable ATP-binding component of ABC transporter

## CC(=O)c1ccccc1N [2AA, 2′-aminoacetophenone]
Harvested at OD600 of 3.0
  genes whose expression was altered more than 2 fold: approximately 1250 genes
More than 2 fold
  genes downregulated: 1056 genes
  genes upregulated: 199 genes
3-hydroxyisobutyrate dehydrogenase mmsB
  FOLD CHANGE PA3569: −2.6 fold
3-oxoacyl-[acyl-carrier-protein] synthase III pqsD
  FOLD CHANGE PA0999: −5.2 fold
PA-I galactophilic lectin
  FOLD CHANGE PA2570: −4.5 fold
Anthranilate synthase component I, phnA
  FOLD CHANGE PA1001: −6.2 fold
Anthranilate synthase component II, phnB
  FOLD CHANGE PA1002: −4.9 fold
Carbon storage regulator csrA
  FOLD CHANGE PA0905: −2.7 fold
Chemotaxis protein CheZ
  FOLD CHANGE PA1457: −2.1 fold
chitinase
  FOLD CHANGE PA2300: −3.2 fold
Conserved hypothetical protein
  FOLD CHANGE PA0122: −3.4 fold
  FOLD CHANGE PA0567: −3.0 fold
  FOLD CHANGE PA1914: −26.3 fold
  FOLD CHANGE PA2754: −2.0 fold
  FOLD CHANGE PA4739: −3.7 fold
General secretion pathway protein D
  FOLD CHANGE PA3105: −2.2 fold
General secretion pathway protein G
  FOLD CHANGE PA3101: −3.4 fold
General secretion pathway protein H
  FOLD CHANGE PA3100: −2.1 fold
General secretion pathway protein I
  FOLD CHANGE PA3099: −2.2 fold
General secretion pathway protein J
  FOLD CHANGE PA3098: −2.2 fold
General secretion pathway protein L
  FOLD CHANGE PA3096: −2.8 fold
Glyceraldehyde 3-phosphate dehydrogenase
  FOLD CHANGE PA3195: −3.2 fold
heat-shock protein IbpA
  FOLD CHANGE PA3126: −2.5 fold
Hydrogen cyanide synthase HcnB
  FOLD CHANGE PA2194: −3.5 fold
Hydrogen cyanide synthase HcnC
  FOLD CHANGE PA2195: −2.9 fold
Hypothetical protein MexG
  FOLD CHANGE PA4205: −6.1 fold
Hypothetical protein pqsB
  FOLD CHANGE PA0997: −4.6 fold
Hypothetical protein pqsC
  FOLD CHANGE PA0998: −5.4 fold
Hypothetical protein pqsE
  FOLD CHANGE PA1000: −4.3 fold
Hypothetical protein
  FOLD CHANGE PA1216: −2.7 fold
  FOLD CHANGE PA1852: −2.3 fold
  FOLD CHANGE PA2031: −2.0 fold
  FOLD CHANGE PA2134: −2.5 fold
  FOLD CHANGE PA2172: −2.4 fold
  FOLD CHANGE PA2173: −2.3 fold
  FOLD CHANGE PA2274: −3.7 fold
  FOLD CHANGE PA2328: −4.5 fold
  FOLD CHANGE PA2330: −11.7 fold
  FOLD CHANGE PA2331: −10.9 fold
  FOLD CHANGE PA2486: −2.3 fold
  FOLD CHANGE PA3031: −3.1 fold
  FOLD CHANGE PA3370: −2.2 fold
  FOLD CHANGE PA3371: −2.1 fold
  FOLD CHANGE PA3691: −7.0 fold
  FOLD CHANGE PA4917: −2.1 fold
methylmalonate-semialdehyde dehydrogenase
  FOLD CHANGE PA3570: −2.9 fold
Osmotically inducible lipoprotein OsmE
  FOLD CHANGE PA4876: −2.6 fold
Outer membrane porin OprB precursor
  FOLD CHANGE PA3186: −2.2 fold
Phenazine biosynthesis protein PhzC
  FOLD CHANGE PA1901: −3.4 fold
Phenazine biosynthesis protein PhzD
  FOLD CHANGE PA1902: −3.4 fold
Phenazine biosynthesis protein PhzE
  FOLD CHANGE PA1903: −3.1 fold
[1]
  FOLD CHANGE PA2329: −9.8 fold
  FOLD CHANGE PA3187: −2.6 fold
Probable FAD-dependent monooxygenase phzS1
  FOLD CHANGE PA4217: −5.4 fold
Probable O-methyltransferase phzM
  FOLD CHANGE PA4209: −2.4 fold
Probable RND efflux membrane fusion protein precursor mexH
  FOLD CHANGE PA4206: −5.9 fold
Probable RND efflux transporter mexI
  FOLD CHANGE PA4207: −7.5 fold
Probable carbamoyl transferase
  FOLD CHANGE PA2069: −2.5 fold
Probable coenzyme A ligase pqsA
  FOLD CHANGE PA0996: −3.0 fold
Probable component of ABC transporter
  FOLD CHANGE PA2204: −3.1 fold
Probable hydrolase
  FOLD CHANGE PA2067: −2.5 fold
Probable iron-binding protein IscA
  FOLD CHANGE PA3812: −5.9 fold
Probable iron-binding protein IscU
  FOLD CHANGE PA3813: −6.7 fold
Probable outer membrane efflux protein precursor, OpmD
  FOLD CHANGE PA4208: −6.8 fold
Probable outer membrane protein
  FOLD CHANGE PA3692: −4.7 fold
Probable permease of ABC sugar transporter
  FOLD CHANGE PA3189: −2.0 fold
Probable permease of ABC transporter
  FOLD CHANGE PA2327: −4.9 fold
Probable phenazine biosynthesis protein phzA1
  FOLD CHANGE PA4210: −3.3 fold
Probable phenazine biosynthesis protein phzB1
  FOLD CHANGE PA4211: −2.9 fold
Probable phenazine biosynthesis protein
  FOLD CHANGE PA1904: −3.6 fold
Probable pyridoxamine 5′-phosphate oxidase
  FOLD CHANGE PA1905: −3.4 fold
Probable transporter
  FOLD CHANGE PA4218: −5.3 fold
Protease pfpI
  FOLD CHANGE PA0355: −2.7 fold
two-component response regulator CheY
  FOLD CHANGE PA1456: −2.3 fold
